Reference: PMC9250534, “Synthesis and direct assay of large macrocycle diversities by combinatorial late-stage modification at picomole scale” (Nature Communications, 2022)
Numbered stars: 1 amine (or outer) side, 2 acyl side, 3 side chain; on linkers, the order of the positions; unused ones are H or OH. Bridge positions count the residues as written; N and C are the ends. Square brackets hold non-standard residues; d marks the D form. Peptide text beside a SMILES is read from it. * marks the point of attachment. Isoorotoyl = O=C(c1c[nH]c(=O)[nH]c1=O)*; 2Thenoyl(5-Cl) = O=C(c1ccc(Cl)s1)*; Pyrazinecarbonyl = O=C(c1cnccn1)*; Phenoxyacetyl = O=C(COc1ccccc1)*; Cysteamide = C(CS[*:3])N[*:1]; X3 = O=C(Cc1c[nH]c2ccccc12)*; Mpa = O=C(O)CCS

What follows are compounds tested against T1, thrombin (Homo sapiens, UniProt P00734) (assay: Thrombin inhibition screen of crude macrocycle reactions (residual thrombin activity, fluorogenic substrate Z-Gly-Gly-Arg-AMC)). Settings: 10 µM macrocycle concentration; crude reactions, Library 1a-l; scaffold AA1-AA2-AA3 combined with 1-16 or '-'.
T1 construct: consists of two polypeptide chains of 36 (light chain) and 259 amino acid
Format: biochemical
How it was run: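 Each crude macrocycle (10 μM) was preincubated 10 min at room temperature with thrombin (2 nM final) in Tris-Cl pH 7.4 containing NaCl, MgCl2, CaCl2, 0.1% BSA, 0.01% Triton X-100 and 0.6% DMSO. Z-Gly-Gly-Arg-AMC (50 μM final) was then added. Inhibition came from fluorescence slopes relative to DMSO-only controls.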

Row | Compound | percent residual thrombin activity [%]
1 | CC1NC(=O)C2CCCN2C(=O)C(CCCCNC(=O)c2ccc(Cl)s2)NC(=O)CCSSCCNC1=O (stereo not shown) [D1-B1-a/14] ([Mpa]K(2Thenoyl(5-Cl))PA-Cysteamide; disulfide 1-C; configuration not given here) | 96.3758
2 | O=C1CCSSCCNC(=O)[C@@H](Cc2ccc(O)cc2)NC(=O)CCNC(=O)[C@H](CCCCNC(=O)c2c[nH]c(=O)cn2)N1 [D1-B2-y/9] | 109.951
3 | COc1ccc(C(=O)NCCCC[C@@H]2NC(=O)CCSSCCNC(=O)[C@@H](Cc3ccc(O)cc3)NC(=O)CCNC2=O)cn1 [D1-B2-y/10] | 108.421
4 | O=C1CCSSCCNC(=O)[C@@H](Cc2ccc(O)cc2)NC(=O)CCNC(=O)[C@H](CCCCNC(=O)c2ccco2)N1 [D1-B2-y/16] | 114.281
5 | CC(C)CC(=O)NCCCC[C@@H]1NC(=O)CCSSCCNC(=O)[C@H](CO)NC(=O)c2ccc(cc2)CNC1=O [D1-B3-S/8] | 103.332
6 | O=C1CCSSCCNC(=O)[C@H](CO)NC(=O)c2ccc(cc2)CNC(=O)[C@H](CCCCNC(=O)c2c[nH]c(=O)[nH]c2=O)N1 [D1-B3-S/11] | 105.178
7 | Cc1nnsc1C(=O)NCCCC[C@@H]1NC(=O)CCSSCCNC(=O)[C@H](CO)NC(=O)c2ccc(cc2)CNC1=O [D1-B3-S/15] | 103.115
8 | CC(C)CC(=O)NCCCC[C@@H]1NC(=O)CCSSCCNC(=O)[C@@H](Cc2ccc(O)cc2)NC(=O)[C@H]2CCCN(C2)C1=O [D1-B4-y/8] | 108.143
9 | O=C1CCSSCCNC(=O)C(Cc2ccc(O)cc2)NC(=O)C2CCCN(C2)C(=O)C(CCCCNC(=O)c2c[nH]c(=O)[nH]c2=O)N1 (stereo not shown) [D1-B4-y/11] | 105.223
10 | O=C(Cc1c[nH]c2ccccc12)NCCCCC1NC(=O)CCSSCCNC(=O)C(Cc2ccc(O)cc2)NC(=O)C2CCCN(C2)C1=O (stereo not shown) [D1-B4-y/12] | 103.012
11 | Cc1nnsc1C(=O)NCCCC[C@@H]1NC(=O)CCSSCCNC(=O)[C@@H](Cc2ccc(O)cc2)NC(=O)[C@H]2CCCN(C2)C1=O [D1-B4-y/15] | 108.72
12 | NCCCC[C@@H]1NC(=O)CCSSCCNC(=O)[C@H]2CCCN(C2)C(=O)[C@H](Cc2ccccc2)NC1=O [D1-F-B4/-] | 110.104
13 | O=C1CCSSCCNC(=O)C2(CC2)CNC(=O)[C@H](Cc2c[nH]cn2)NC(=O)[C@H](CCCCNC(=O)c2cnccn2)N1 [D1-H-B6/2] | 113.964
14 | Cc1nnsc1C(=O)NCCCC[C@@H]1NC(=O)CCSSCCNC(=O)C2(CC2)CNC(=O)[C@H](Cc2cnc[nH]2)NC1=O [D1-H-B6/15] | 113.747
15 | NCCCC[C@@H]1NC(=O)CCSSCCNC(=O)C2(CC2)CNC(=O)[C@H](Cc2cnc[nH]2)NC1=O [D1-H-B6/-] | 116.392
16 | CC[C@H](C)[C@@H]1NC(=O)[C@H](CCCCNC(=O)COc2ccccc2)NC(=O)CCSSCCNC(=O)C2(CC2)CNC1=O [D1-I-B6/13] | 106.199

Now from value to compound:

Row | percent residual thrombin activity [%] | Compound
17 | 103.501 | CC[C@H](C)[C@@H]1NC(=O)[C@H](CCCCNC(=O)c2ccco2)NC(=O)CCSSCCNC(=O)C2(CC2)CNC1=O [D1-I-B6/16]
18 | 104.356 | NC(=O)CCC1NC(=O)C(CCCCNC(=O)c2cnccn2)NC(=O)CCSSCCNC(=O)C2CCCN2C1=O (stereo not shown) [D1-Q-B1/2] ([Mpa]K(Pyrazinecarbonyl)QP-Cysteamide; disulfide 1-C; configuration not given here)
19 | 109.119 | NC(=O)CC[C@@H]1NC(=O)[C@H](CCCCNC(=O)c2c[nH]c(=O)[nH]c2=O)NC(=O)CCSSCCNC(=O)[C@@H]2CCCN2C1=O [D1-Q-B1/11] ([Mpa]K(Isoorotoyl)QP-Cysteamide; disulfide 1-C)
20 | 104.82 | NC(=O)CC[C@@H]1NC(=O)[C@H](CCCCNC(=O)Cc2c[nH]c3ccccc23)NC(=O)CCSSCCNC(=O)[C@@H]2CCCN2C1=O [D1-Q-B1/12] ([Mpa]K(X3)QP-Cysteamide; disulfide 1-C)
21 | 104.037 | NC(=O)CC[C@@H]1NC(=O)[C@H](CCCCNC(=O)COc2ccccc2)NC(=O)CCSSCCNC(=O)[C@@H]2CCCN2C1=O [D1-Q-B1/13] ([Mpa]K(Phenoxyacetyl)QP-Cysteamide; disulfide 1-C)
22 | 108.142 | NCCCC[C@@H]1NC(=O)CCSSCCNC(=O)[C@@H]2CCCN2C(=O)[C@H](CCC(N)=O)NC1=O [D1-Q-B1/-] ([Mpa]KQP-Cysteamide; disulfide 1-C)
23 | 111.469 | COc1ccc(C(=O)NCCCC[C@@H]2NC(=O)CCSSCCNC(=O)c3ccc(cc3)CNC(=O)[C@H](CO)NC2=O)cn1 [D1-S-B3/10]
24 | 115.568 | O=C(COc1ccccc1)NCCCC[C@@H]1NC(=O)CCSSCCNC(=O)c2ccc(cc2)CNC(=O)[C@H](CO)NC1=O [D1-S-B3/13]
25 | 113.1 | Cc1nnsc1C(=O)NCCCC[C@@H]1NC(=O)CCSSCCNC(=O)c2ccc(cc2)CNC(=O)[C@H](CO)NC1=O [D1-S-B3/15]
26 | 102.192 | COc1ccc(C(=O)NCCCC[C@@H]2NC(=O)CCSSCCNC(=O)C3(CC3)CNC(=O)[C@H](CO)NC2=O)cn1 [D1-S-B6/10]
27 | 103.758 | O=C1CCSSCCNC(=O)C2(CC2)CNC(=O)[C@H](CO)NC(=O)[C@H](CCCCNC(=O)c2c[nH]c(=O)[nH]c2=O)N1 [D1-S-B6/11]
28 | 110.303 | CC(C)CC(=O)NCCCC[C@@H]1NC(=O)CCSSCCNC(=O)C2(CC2)CNC(=O)[C@H](C(C)C)NC1=O [D1-V-B6/8]
29 | 106.409 | CC(C)[C@@H]1NC(=O)[C@H](CCCCNC(=O)c2c[nH]c(=O)cn2)NC(=O)CCSSCCNC(=O)C2(CC2)CNC1=O [D1-V-B6/9]
30 | 112.935 | Cc1nnsc1C(=O)NCCCC[C@@H]1NC(=O)CCSSCCNC(=O)C2(CC2)CNC(=O)[C@H](C(C)C)NC1=O [D1-V-B6/15]
31 | 107.867 | CC(C)[C@@H]1NC(=O)[C@H](CCCCNC(=O)c2ccco2)NC(=O)CCSSCCNC(=O)C2(CC2)CNC1=O [D1-V-B6/16]
32 | 104.624 | CC[C@H](C)[C@@H]1NC(=O)CCNC(=O)[C@H](CCCNC(=O)c2ccc(OC)nc2)NC(=O)CCSSCCNC1=O [D2-B2-I/10]
33 | 113.677 | CC[C@H](C)[C@@H]1NC(=O)CCNC(=O)[C@H](CCCNC(=O)c2c[nH]c(=O)[nH]c2=O)NC(=O)CCSSCCNC1=O [D2-B2-I/11]
34 | 111.823 | CC[C@H](C)[C@@H]1NC(=O)CCNC(=O)[C@H](CCCNC(=O)c2ccco2)NC(=O)CCSSCCNC1=O [D2-B2-I/16]
35 | 109.22 | O=C1CCSSCCNC(=O)[C@@H](Cc2ccc(O)cc2)NC(=O)CCNC(=O)[C@H](CCCNC(=O)c2ccccc2)N1 [D2-B2-y/1]
36 | 112.114 | CC(C)CC(=O)NCCC[C@@H]1NC(=O)CCSSCCNC(=O)[C@H](CCC(N)=O)NC(=O)c2ccc(cc2)CNC1=O [D2-B3-Q/8]

Same assay, conditions: 10 µM macrocycle concentration; macrocycles containing acid 14; crude reaction; original screen

Row | Compound | % thrombin activity, Original screen [%]
37 | O=C1CNC(=O)[C@@H](NC(=O)c2ccc(Cl)s2)CSSCCNC(=O)c2ccc(cc2)CNC(=O)[C@@H](CO)N1 [C G s B3] | 93.7
38 | CC(C)C1NC(=O)C(NC(=O)c2ccc(Cl)s2)CSSCCNC(=O)c2cccc(c2)CNC(=O)CNC1=O (stereo not shown) [C v G B5] | 111.1

Same assay, conditions: 10 µM macrocycle concentration; macrocycles containing acid 14; crude reaction; replicate reaction and screen

Row | Compound | % thrombin activity, Repeat screen [%]
39 | O=C1CNC(=O)[C@@H](NC(=O)c2ccc(Cl)s2)CSSCCNC(=O)c2ccc(cc2)CNC(=O)[C@@H](CO)N1 [C G s B3] | 99.7
40 | CC(C)C1NC(=O)C(NC(=O)c2ccc(Cl)s2)CSSCCNC(=O)c2cccc(c2)CNC(=O)CNC1=O (stereo not shown) [C v G B5] | 111.8
